Each compound was assayed on chicken dorsal root ganglion (DRG) neurons (assay: Neuronal viability assay (calcein-AM) in primary culture of chicken dorsal root ganglion neurons). Conditions: Gallus gallus, DRG neuron, 48 h; survival of chick embryonic day 10 DRG neurons after two days of incubation; calcein-AM fluorescence; 0% = no neurotrophic factor, 100% = 10 ng/ml NGF; pIC50 from dose response curves; read-out: [C1] DRG assay SCORE.
Type: cell-based, chicken (White Leghorn chick embryos)
Text: This assay is based on a fluorimetric Calcein-AM measurement and addresses the functional response of neurons as a quantitative measure of survival.
Primary Culture of Chicken Dorsal Root Ganglion Neurons
Dorsal root ganglia were dissected from White Leghorn chick embryos at embryonic day 10 as described previously (Skaper S. D. and Varon S. (1986) Brain Research 389, 39-46). The ganglia were trypsinised and dissociated by mild trituration in a HBSS buffer supplemented with 0.6% glucose and 0.08% trypsin. To remove non-neuronal lo cells by differential attachment to culture plastic, the ganglionic cell suspension was diluted to 2.5×10^5 cells/ml and seeded on tissue culture plastic dishes at 10 ml per 100 mm dish. After 2 h preplating, unattached neurons were collected and resuspended into Basal Eagle Medium containing 10% FCS. To remove cell aggregates, the cell suspension was passed through a nylon mesh (50 μM) pore diameter. Neuron-enriched cell suspension was plated at 5×10^4 cells/ml into poly-L-ornithine (100 μg/ml) and laminine (1 μg/ml) coated multiwell 96 plates. Compounds were dissolved in dimethyl sulfoxide and kept as a stock at −20° C. NGF and compounds were diluted in the culture medium and added to the cells immediately after plating. The final concentration of dimethyl sulfoxide in the test medium was 0.1%. After two days of incubation, neuronal viability was assessed with calcein-AM.
Neuronal Viability Assay Using Calcein-AM
Neuronal viability assay using calcein AM was performed as previously described (Bozyczko-Coyne D., McKenna B. W., Connors T. J., and Neff N. T. (1993) Journal of Neuroscience Methods 50, 205-216). For the assay, calcein-AM was diluted in PBS to the final concentration (1 μM). For each experiment an aliquot of calcein-AM (1 mg/ml in DMSO stored at −20° C.) was thawed immediately before use. The medium was removed from the wells and replaced with the calcein-AM solution. Assay plates were incubated for 1 h at 37° C. in a humidified CO2 incubator. Following the incubation, reading was done in a Cytofluor II at an excitation wavelength of 485 nm and an emission wavelength of 530 nm. Each plate had control wells with no neurotrophic factor added (0% survival) and wells with 10 ng/ml NGF (100% survival).
The drugs to be tested were taken from a stock solution and tested at a final concentration ranging from […] to 3.10^−9M. From the thus obtained dose response curves, the pIC50 value was calculated and scored as follows; Score 1=pIC50 value <6, Score 2=pIC50 value in the range of 6 to 8, Score 3 =pIC50 value>8. (in this table NT stands for Not Tested).

Compared with `O=C(c1ccc(F)cc1)C1CCN(CC#CCN2CCC(C(=O)c3ccc(F)cc3)CC2)CC1` [Compound 1], `O=C(c1ccc(F)cc1)C1CCN(C(=O)CCCCCCCC(=O)N2CCC(C(=O)c3ccc(F)cc3)CC2)CC1` [Compound 45] is higher in IC50: under 10 nM for the first, over 1000 nM for the second.

`c1ccc2c(c1)CCN2C1CCN(CCCCCCCCCCCCN2CCC(N3CCc4ccccc43)CC2)CC1` [Compound 2] and `c1ccc2c(CC3CCN(CCCN4CCC(Cc5c[nH]c6ccccc56)CC4)CC3)c[nH]c2c1` [Compound 39] fall in the same range of IC50: 10 to 1000 nM for the first, 10 to 1000 nM for the second.

`O=C(NCCCCCCNC(=O)N1CCC(O)(c2cccc(C(F)(F)F)c2)C(O)C1)N1CCC(O)(c2cccc(C(F)(F)F)c2)C(O)C1` (stereo not drawn) [Compound 3] and `OC(CN1CCC(O)(c2cccc(C(F)(F)F)c2)C(O)C1)CN1CCC(O)(c2cccc(C(F)(F)F)c2)C(O)C1` (stereo not drawn) [Compound 18] fall in the same range of IC50: 10 to 1000 nM for the first, 10 to 1000 nM for the second.

First: CC(C)(C)Cc1nc(C2CCN(C(=O)CCCCCC(=O)N3CCC(c4noc(CC(C)(C)C)n4)CC3)CC2)no1 [Compound 4]
Second: O=C(CCCCCCCC(=O)N1CCC(c2noc3cc(F)ccc23)CC1)N1CCC(c2noc3cc(F)ccc23)CC1 [Compound 42]
The IC50 of the first is higher: over 1000 nM for the first, 10 to 1000 nM for the second. The second is the more potent here.

First: O=S(=O)(c1ccc(Cc2ccc(S(=O)(=O)N3CCC(O)(c4cccnc4)CC3)cc2)cc1)N1CCC(O)(c2cccnc2)CC1 [Compound 5]
Second: O=S(=O)(c1ccc(Cc2ccc(S(=O)(=O)N3CCC(O)(c4ccc(Cl)c(Cl)c4)CC3)cc2)cc1)N1CCC(O)(c2ccc(Cl)c(Cl)c2)CC1 [Compound 13]
The IC50 of the first is lower: 10 to 1000 nM for the first, over 1000 nM for the second. The first is the more potent here.

First: O=S(=O)(c1ccc(Oc2ccc(S(=O)(=O)N3CCC(O)(c4ccc(Br)cc4)CC3)cc2)cc1)N1CCC(O)(c2ccc(Br)cc2)CC1 [Compound 6]
Second: O=S(=O)(c1ccc(Oc2ccc(S(=O)(=O)N3CCC(O)(c4ccc(Cl)cc4)CC3)cc2)cc1)N1CCC(O)(c2ccc(Cl)cc2)CC1 [Compound 16]
The IC50 of the first is higher: over 1000 nM for the first, 10 to 1000 nM for the second.

`O=C(CCCCCCCC(=O)N1CCC(O)(c2cccc(Cl)c2)CC1)N1CCC(O)(c2cccc(Cl)c2)CC1` [Compound 7] and `O=C(CCCCCCCC(=O)N1CCC(O)(c2ccc(Cl)c(Cl)c2)CC1)N1CCC(O)(c2ccc(Cl)c(Cl)c2)CC1` [Compound 22] cannot be ordered by IC50: over 1000 nM for the first, over 1000 nM for the second.

`O=C(CCCCC(=O)N1CCC(OCc2cccc(C(F)(F)F)c2)CC1)N1CCC(OCc2cccc(C(F)(F)F)c2)CC1` [Compound 10] and `O=C(CCCCCCC(=O)N1CCC(OCc2cccc(C(F)(F)F)c2)CC1)N1CCC(OCc2cccc(C(F)(F)F)c2)CC1` [Compound 12] fall in the same range of IC50: 10 to 1000 nM for the first, 10 to 1000 nM for the second.

`O=C(CCCCCCC(=O)N1CCC(Oc2nc3ccccc3s2)CC1)N1CCC(Oc2nc3ccccc3s2)CC1` [Compound 11] and `O=C(NCCCCCCNC(=O)N1CCC(Cc2nc3ccccc3s2)CC1)N1CCC(Cc2nc3ccccc3s2)CC1` [Compound 36] fall in the same range of IC50: 10 to 1000 nM for the first, 10 to 1000 nM for the second.

`O=S(=O)(c1ccc(Oc2ccc(S(=O)(=O)N3CCC(O)(c4ccc(Cl)c(Cl)c4)CC3)cc2)cc1)N1CCC(O)(c2ccc(Cl)c(Cl)c2)CC1` [Compound 14] and `O=S(=O)(c1ccc(Oc2ccc(S(=O)(=O)N3CCC(O)(c4cccc(Cl)c4)CC3)cc2)cc1)N1CCC(O)(c2cccc(Cl)c2)CC1` [Compound 15] fall in the same range of IC50: 10 to 1000 nM for the first, 10 to 1000 nM for the second.

`C(#CCN1CCC(c2c[nH]c3ccccc23)CC1)CN1CCC(c2c[nH]c3ccccc23)CC1` [Compound 17] and `Fc1ccc2c(C3CCN(CC#CCN4CCC(c5noc6cc(F)ccc56)CC4)CC3)noc2c1` [Compound 40] fall in the same range of IC50: 10 to 1000 nM for the first, 10 to 1000 nM for the second.

First: OC(CN1CCC(O)(c2ccc(Cl)cc2)CC1)CN1CCC(O)(c2ccc(Cl)cc2)CC1 [Compound 19]
Second: OC1(c2ccc(Cl)cc2)CCN(CC#CCN2CCC(O)(c3ccc(Cl)cc3)CC2)CC1 [Compound 26]
The IC50 of the first is higher: 10 to 1000 nM for the first, under 10 nM for the second. The second is the more potent here.

First: O=C(CCCCCCCC(=O)N1CCC(O)(c2ccc(Cl)c(C(F)(F)F)c2)CC1)N1CCC(O)(c2ccc(Cl)c(C(F)(F)F)c2)CC1 [Compound 20]
Second: O=C(CCCCC(=O)N1CCC(O)(c2ccc(Cl)c(C(F)(F)F)c2)CC1)N1CCC(O)(c2ccc(Cl)c(C(F)(F)F)c2)CC1 [Compound 25]
The IC50 of the first is lower: 10 to 1000 nM for the first, over 1000 nM for the second.

`O=C(c1cccc(C(=O)N2CCC(O)(c3ccc(Cl)c(C(F)(F)F)c3)CC2)c1)N1CCC(O)(c2ccc(Cl)c(C(F)(F)F)c2)CC1` [Compound 21] and `O=C(Nc1ccc(NC(=O)N2CCC(O)(c3ccc(Cl)c(C(F)(F)F)c3)CC2)cc1)N1CCC(O)(c2ccc(Cl)c(C(F)(F)F)c2)CC1` [Compound 34] fall in the same range of IC50: 10 to 1000 nM for the first, 10 to 1000 nM for the second.

`O=C(c1ccc(Cl)cc1)C1CCN(C(=O)CCCCCCCC(=O)N2CCC(C(=O)c3ccc(Cl)cc3)CC2)CC1` [Compound 23] and `O=C(c1ccc(Cl)cc1)C1CCN(C(=O)CCCCC(=O)N2CCC(C(=O)c3ccc(Cl)cc3)CC2)CC1` [Compound 24] fall in the same range of IC50: 10 to 1000 nM for the first, 10 to 1000 nM for the second.

`COc1cc2nc(NCC3CCN(C(=O)NCCCCCCNC(=O)N4CCC(CNc5nc6cc(OC)c(OC)cc6s5)CC4)CC3)sc2cc1OC` [Compound 27] and `O=C(NCCCCCCNC(=O)N1CCC(Cc2c[nH]c3ccccc23)CC1)N1CCC(Cc2c[nH]c3ccccc23)CC1` [Compound 29] fall in the same range of IC50: 10 to 1000 nM for the first, 10 to 1000 nM for the second.

`O=C(NCCCCCCNC(=O)N1CCC(O)(c2ccc(Cl)cc2)CC1)N1CCC(O)(c2ccc(Cl)cc2)CC1` [Compound 28] and `O=C(NCCCCCCNC(=O)N1CCC(O)(c2ccc(Cl)c(C(F)(F)F)c2)CC1)N1CCC(O)(c2ccc(Cl)c(C(F)(F)F)c2)CC1` [Compound 48] fall in the same range of IC50: 10 to 1000 nM for the first, 10 to 1000 nM for the second.

`O=C(NCCCCCCNC(=O)N1CCC(c2noc3cc(F)ccc23)CC1)N1CCC(c2noc3cc(F)ccc23)CC1` [Compound 30] and `O=C(c1cccc(C(F)(F)F)c1)C1CCN(C(=O)NCCCCNC(=O)N2CCC(C(=O)c3cccc(C(F)(F)F)c3)CC2)CC1` [Compound 38] fall in the same range of IC50: 10 to 1000 nM for the first, 10 to 1000 nM for the second.

First: O=C(Nc1ccc(Cc2ccc(NC(=O)N3CCC(O)(c4ccc(F)cc4)CC3)cc2)cc1)N1CCC(O)(c2ccc(F)cc2)CC1 [Compound 32]
Second: O=C(Nc1ccc(NC(=O)N2CCC(O)(c3cccc(C(F)(F)F)c3)CC2)cc1)N1CCC(O)(c2cccc(C(F)(F)F)c2)CC1 [Compound 33]
The IC50 of the first is higher: over 1000 nM for the first, 10 to 1000 nM for the second.

First: COc1ccc(-c2noc(C3CCN(C(=O)c4ccc(-c5ccc(C(=O)N6CCC(c7nc(-c8ccc(OC)c(OC9CCCC9)c8)no7)CC6)cc5)cc4)CC3)n2)cc1OC1CCCC1 [Compound 41]
Second: O=C(c1cccc(C(=O)N2CCC(O)(c3ccc(Cl)c(Cl)c3)CC2)c1)N1CCC(O)(c2ccc(Cl)c(Cl)c2)CC1 [Compound 43]
The IC50 of the first is lower: 10 to 1000 nM for the first, over 1000 nM for the second. The first is the more potent here.

First: O=C(c1cccc(C(=O)N2CCC(O)(c3cccc(C(F)(F)F)c3)CC2)c1)N1CCC(O)(c2cccc(C(F)(F)F)c2)CC1 [Compound 44]
Second: OC1(c2ccc(Cl)c(Cl)c2)CCN(CC#CCN2CCC(O)(c3ccc(Cl)c(Cl)c3)CC2)CC1 [Compound 47]
The IC50 of the first is higher: over 1000 nM for the first, 10 to 1000 nM for the second.

Reference: patent US20080015225A1, “Dimeric Piperidine Derivatives” (JANSSEN PHARMACEUTICA N.V., priority 2004, published 2008)
